Test results: US20230407243A1, “GENETIC PLATFORM TO INVESTIGATE THE FUNCTIONS OF BACTERIAL DRUG EFFLUX PUMPS” (priority 2022, published 2023)
Where two headings read alike, the source gives them in different places.

Assays:
Format in all cases: cell-based, Escherichia coli
[1] = system: EKO-35 araC::acrEF; test: MIC susceptibility profiling, efflux platform; conditions: Escherichia coli; Table 13A; non-porinated; technical duplicate; read-out: Minimum Inhibitory Concentration, EKO-35 araC::acrEF
Protocol: (§1) Single colonies were used to inoculate 3 mL of LB followed by incubation at 37° C. for 18 h with aeration at 220 rpm. The bacterial cells were harvested by centrifugation and resuspended in phosphate buffered saline (PBS) ([pH 7.4], 137 mM NaCl (Bioshop), 2.7 mM KCl (Bioshop), 10 mM Na2PO4 (Bioshop) and 1.8 mM K2PO4) to an OD600 nm˜1.0, followed by 1/2000 dilution into MHB II.
(§2) To a 384-well microtiter plate (Corning, untreated polystyrene), 500 nL of compound was dispensed, in duplicate, and serially titrated 2-fold using an Echo 550 acoustic liquid dispenser (Labcyte Inc.). […] As a solvent control, 500 nL of DMSO was applied to wells that contained no compound. Using a multichannel pipette, 50 μL of the prepared bacterial inoculum was applied to each well. To enable background correction post-incubation, the OD600 nm was measured (Biotek Synergy Neo2 microplate reader) prior to incubation. The plates were incubated at 37° C. with aeration at 900 rpm for 18 h. The plates were equilibrated to room temperature and the OD600 nm measured using a BioTek Synergy Neo2 microplate reader. Data was analyzed in both Prism (GraphPad, Version 9.2.0) and Microsoft Excel (Version 16.53). Raw data were input into Microsoft Excel and the pre-incubation OD600 nm measurements were subtracted from the post-incubation OD600 nm measurements. These corrected measurements were input into Prism 9 as a grouped analysis. […] All other MIC values were adjusted accordingly and visualized using the single-color scale grouped heat map function. Identification of compound chemical properties was achieved using DataWarrior (Version 5.5.0). Using PubChem, the SMILES chemical notation for each compound was obtained and compiled in Microsoft Excel. The resulting spreadsheet was input into DataWarrior and properties were calculated from the compound chemical structures.

[2] = system: EKO-35 araC::acrB; test: MIC susceptibility profiling, efflux platform; conditions: Escherichia coli; Table 13A; non-porinated; technical duplicate; read-out: Minimum Inhibitory Concentration, EKO-35 araC::acrB
Protocol: as §1, §2

[3] = system: EKO-35 araC::mexCD (MexCD from P. aeruginosa); test: MIC susceptibility profiling, efflux platform; conditions: Table 13B; non-porinated; technical duplicate; read-out: Minimum Inhibitory Concentration, EKO-35 araC::mexCD
Protocol: as §1, §2

[4] = system: E. coli EKO-35; test: microbe, parasite or virus in culture; conditions: Escherichia coli, EKO35, technical duplicate
Protocol: as §1, §2

[5] = system: wild-type E. coli K-12 str. BW25113; test: microbe, parasite or virus in culture; conditions: Escherichia coli, BW25113, technical duplicate
Protocol: as §1, §2

[6] = system: E. coli ΔtolC; test: microbe, parasite or virus in culture
Protocol: as §1, §2

[7] = system: EKO-35 araC::acrEF Pore; test: MIC susceptibility profiling, porinated efflux platform; conditions: Escherichia coli; Table 14A; porinated; technical duplicate; read-out: Minimum inhibitory concentration, EKO-35 araC::acrEF Pore
Protocol: (§3) For genomic integration of the pore, the fhuA ΔC/Δ4L gene and the adjacent gentamicin resistance cassette were amplified using a high-fidelity polymerase and the fhuA_40_Up/gImS_3680_Low primers (Table 4). Integration of the pore gene was performed as described above. The pore gene was introduced into the intergenic region between the glmS and pstS genes, with gene expression under the control of a constitutive promoter (Kearse, M. et al., 2012). Genomic integrations were verified using PCR (Primers: pstS_520_Up/glmS_3680_Low, Table 4). Successful integrations were transformed with pCP20 to remove the gentamicin resistance cassette as previously described. Activity of the pore was confirmed through susceptibility testing with the large antibiotic vancomycin prior to phenotypic profiling and further susceptibility testing.
as §1, §2

[8] = system: EKO-35 araC::acrD Pore; test: as above; conditions: Escherichia coli; Table 14A; porinated; technical duplicate; read-out: Minimum inhibitory concentration, EKO-35 araC::acrD Pore
Protocol: as §3, §1, §2

[9] = system: EKO-35 araC::macAB Pore; test: as above; conditions: Escherichia coli; EKO-35 araC::macAB Pore; technical duplicate; read-out: Minimum inhibitory concentration
Protocol: as §3, §1, §2

[10] = system: EKO-35 araC::acrBD408A Pore; test: as above; conditions: Escherichia coli; EKO-35 araC::acrBD408A Pore; technical duplicate; read-out: Minimum inhibitory concentration
Protocol: as §3, §1, §2

[11] = system: EKO-35 araC::mdtEF Pore; test: as above; conditions: Escherichia coli; Table 14A; porinated; technical duplicate; read-out: Minimum inhibitory concentration, EKO-35 araC::mdtEF Pore
Protocol: as §3, §1, §2

[12] = system: EKO-35 araC::acrB Pore; test: as above; conditions: Escherichia coli; Table 14A; porinated; technical duplicate; read-out: Minimum inhibitory concentration, EKO-35 araC::acrB Pore
Protocol: as §3, §1, §2

[13] = system: EKO-35 araC::mdtBC Pore; test: as above; conditions: Escherichia coli; EKO-35 araC::mdtBC Pore; technical duplicate; read-out: Minimum inhibitory concentration
Protocol: as §3, §1, §2

[14] = system: EKO-35 araC::emrKY Pore; test: as above; conditions: Escherichia coli; EKO-35 araC::emrKY Pore; technical duplicate; read-out: Minimum inhibitory concentration
Protocol: as §3, §1, §2

[15] = system: wild-type (WT) K-12-Pore; test: microbe, parasite or virus in culture; conditions: Escherichia coli, technical duplicate
Protocol: as §3, §1, §2

[16] = system: ΔtolC-Pore; test: microbe, parasite or virus in culture
Protocol: as §3, §1, §2

[17] = system: EKO-35-Pore; test: MIC susceptibility profiling, porinated strain; conditions: Escherichia coli, technical duplicate
Protocol: as §3, §1, §2

## O=C(O)c1cn(C2CC2)c2cc(N3CCNCC3)c(F)cc2c1=O [ciprofloxacin]
[1]
  MIC: 20 ng/mL
[2]
  MIC: 20 ng/mL
[3]
  MIC: 10 ng/mL
[4]; Table 10, without pore, read-out: Minimum inhibitory concentration (MIC), EKO-35
  MIC: 5 ng/mL
[4]; Table 13A, non-porinated, read-out: Minimum Inhibitory Concentration, EKO-35
  MIC: 5 ng/mL
[5]; Table 10, without pore, read-out: Minimum inhibitory concentration (MIC), K-12
  MIC: 10 ng/mL
[5]; Table 13A, non-porinated, read-out: Minimum Inhibitory Concentration, K-12
  MIC: 10 ng/mL
[6]; Escherichia coli, 18 h, read-out: Minimum Inhibitory Concentration, ΔtolC
  MIC: 5 ng/mL
[6]; Table 10, without pore, technical duplicate
  Minimum inhibitory concentration (MIC), ΔtolC: 5 ng/mL
[7]
  MIC: 10 ng/mL
[8]
  MIC: 2 ng/mL
[9]
  MIC: 2 ng/mL
[10]
  MIC: 2 ng/mL
[11]
  MIC: 2 ng/mL
[12]
  MIC: 9 ng/mL
[13]
  MIC: 2 ng/mL
[14]
  MIC: 2 ng/mL
[15]; Table 10, with pore, read-out: Minimum inhibitory concentration (MIC), Pore K-12
  MIC: 5 ng/mL
[15]; Table 14A, porinated, read-out: Minimum inhibitory concentration, K-12 (WT)-Pore
  MIC: 5 ng/mL
[16]; Escherichia coli, 18 h, read-out: Minimum inhibitory concentration, ΔtolC-Pore
  MIC: 2 ng/mL
[16]; Table 10, with pore, technical duplicate
  Minimum inhibitory concentration (MIC), Pore ΔtolC: 2 ng/mL
[17]; Table 10, with pore, read-out: Minimum inhibitory concentration (MIC), Pore EKO-35
  MIC: 2 ng/mL
[17]; Table 14A, porinated, read-out: Minimum inhibitory concentration, EKO-35-Pore
  MIC: 2 ng/mL
